Columns and labels:
Type in all cases: biochemical
HDAC6 = biological target: T1, HDAC6 (Homo sapiens, UniProt Q9UBN7); assay: In vitro HDAC6 inhibitory assay (BPS Bioscience, fluorogenic); settings: 10 µM
T1 construct: purchased BPS Bioscience 50006
T1 sequence (Q9UBN7 1-1215): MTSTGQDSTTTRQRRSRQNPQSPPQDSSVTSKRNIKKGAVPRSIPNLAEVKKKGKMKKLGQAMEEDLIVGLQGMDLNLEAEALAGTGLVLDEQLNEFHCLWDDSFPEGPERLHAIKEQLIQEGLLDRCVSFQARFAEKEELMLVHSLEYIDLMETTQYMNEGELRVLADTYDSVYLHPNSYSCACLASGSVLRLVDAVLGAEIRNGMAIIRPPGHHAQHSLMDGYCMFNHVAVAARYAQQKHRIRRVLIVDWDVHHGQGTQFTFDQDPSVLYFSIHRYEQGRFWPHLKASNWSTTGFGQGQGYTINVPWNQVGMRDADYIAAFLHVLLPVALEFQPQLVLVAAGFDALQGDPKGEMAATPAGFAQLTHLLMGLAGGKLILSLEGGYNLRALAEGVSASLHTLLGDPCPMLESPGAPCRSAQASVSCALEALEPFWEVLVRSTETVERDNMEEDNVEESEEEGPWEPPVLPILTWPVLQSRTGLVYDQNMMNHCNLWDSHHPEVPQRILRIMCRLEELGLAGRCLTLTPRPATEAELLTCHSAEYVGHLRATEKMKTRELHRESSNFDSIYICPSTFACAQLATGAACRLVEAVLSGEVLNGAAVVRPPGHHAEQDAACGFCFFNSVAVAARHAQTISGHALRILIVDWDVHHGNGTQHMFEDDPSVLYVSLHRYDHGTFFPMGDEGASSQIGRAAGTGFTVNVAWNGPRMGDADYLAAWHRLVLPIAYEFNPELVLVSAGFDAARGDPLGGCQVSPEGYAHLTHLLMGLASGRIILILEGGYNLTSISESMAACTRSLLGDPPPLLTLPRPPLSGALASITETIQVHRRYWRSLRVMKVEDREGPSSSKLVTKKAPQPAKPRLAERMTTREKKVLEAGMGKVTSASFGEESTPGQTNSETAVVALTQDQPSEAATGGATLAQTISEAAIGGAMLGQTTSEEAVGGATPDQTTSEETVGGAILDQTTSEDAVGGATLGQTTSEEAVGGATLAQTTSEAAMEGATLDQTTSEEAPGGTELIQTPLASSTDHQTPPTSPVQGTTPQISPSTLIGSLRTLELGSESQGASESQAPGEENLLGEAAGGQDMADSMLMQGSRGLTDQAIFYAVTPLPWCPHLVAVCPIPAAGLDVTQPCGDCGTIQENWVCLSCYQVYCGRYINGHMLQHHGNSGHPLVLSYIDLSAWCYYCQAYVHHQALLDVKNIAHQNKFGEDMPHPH
Protocol: (1 picture or pasted object on this page, not shown here)
HDAC activity assays were performed in duplicates at each concentration. The

Hela nuclear extracts = assay: Hela nuclear extract HDAC inhibitor assay (BPS Bioscience); settings: 10 µM
Protocol: The purpose of the study is to determine the effects of twenty compounds from Misr International University on the enzymatic activities of hela nuclear extracts using an in vitro […]
7a Solution 10mM DMSO 10 10 % DMSO in
7b Solution 10mM DMSO 10 10 % DMSO in
7d Solution 10mM DMSO 10 10 % DMSO in
2.3 Experimental Conditions
2.3.1 Enzymes and Substrates
Assay Catalog # Substrate
Hela Nuclear Exctract 50053 10 µM HDAC Substrate 3
For the hela nuclear extracts, hela cells were grown to 90 % confluency. Hela nuclear extracts were prepared from the Nuclear Extraction Kit from abcam (Catalog # ab113474). The final total protein concentration was calculated to be 2.4 µg/µl. From this, the hela nuclear extracts was diluted 20-fold in HDAC assay buffer and 5 µl of the dilution was added to a 50 µl reaction.
The compounds are dissolved in DMSO. A series of dilutions of the compounds were prepared with 10% DMSO in HDAC assay buffer and 5 µl of the dilution was added to a 50 µl reaction so that the final concentration of DMSO is 1 % in all of […]
The enzymatic reactions for the hela nuclear extract were conducted in duplicate at 37 °C for 60 minutes in a 50 µl mixture containing HDAC assay buffer, 5 µg BSA, an HDAC substrate (see 2.3.1), hela nuclear extract, and a test compound (see 2.2).
After enzymatic reactions, 50μl of 2 x HDAC Developer was added to each well for the hela nuclear extract and the plate was incubated at room temperature for an additional 15 […]
Fluorescence intensity was measured at an excitation of 360 nm and an emission of 460 nm using a Tecan Infinite M1000 microplate reader.
Hela nuclear extract activity assays were performed in duplicates at each concentration.
The fluorescent intensity data were analyzed using the computer software, Graphpad Prism. In the absence of the compound, the fluorescent intensity (Ft) in each data set was defined as 100% activity. In the absence of hela nuclear extract, the fluorescent intensity (Fb) in each data set was defined as 0% activity. The percent activity in the presence of each compound was calculated according to the following equation: %activity = (F-Fb)/(Ft-Fb), where F= the fluorescent intensity in the presence of the compound.
The values of percentage activity were plotted on a bar graph.

VEGFR-2 = VEGFR-2 (Homo sapiens, UniProt P35968); assay: In vitro VEGFR-2 tyrosine kinase inhibitory assay (Z'-LYTE, SelectScreen)
Chain of VEGFR-2 (P35968 20-1356): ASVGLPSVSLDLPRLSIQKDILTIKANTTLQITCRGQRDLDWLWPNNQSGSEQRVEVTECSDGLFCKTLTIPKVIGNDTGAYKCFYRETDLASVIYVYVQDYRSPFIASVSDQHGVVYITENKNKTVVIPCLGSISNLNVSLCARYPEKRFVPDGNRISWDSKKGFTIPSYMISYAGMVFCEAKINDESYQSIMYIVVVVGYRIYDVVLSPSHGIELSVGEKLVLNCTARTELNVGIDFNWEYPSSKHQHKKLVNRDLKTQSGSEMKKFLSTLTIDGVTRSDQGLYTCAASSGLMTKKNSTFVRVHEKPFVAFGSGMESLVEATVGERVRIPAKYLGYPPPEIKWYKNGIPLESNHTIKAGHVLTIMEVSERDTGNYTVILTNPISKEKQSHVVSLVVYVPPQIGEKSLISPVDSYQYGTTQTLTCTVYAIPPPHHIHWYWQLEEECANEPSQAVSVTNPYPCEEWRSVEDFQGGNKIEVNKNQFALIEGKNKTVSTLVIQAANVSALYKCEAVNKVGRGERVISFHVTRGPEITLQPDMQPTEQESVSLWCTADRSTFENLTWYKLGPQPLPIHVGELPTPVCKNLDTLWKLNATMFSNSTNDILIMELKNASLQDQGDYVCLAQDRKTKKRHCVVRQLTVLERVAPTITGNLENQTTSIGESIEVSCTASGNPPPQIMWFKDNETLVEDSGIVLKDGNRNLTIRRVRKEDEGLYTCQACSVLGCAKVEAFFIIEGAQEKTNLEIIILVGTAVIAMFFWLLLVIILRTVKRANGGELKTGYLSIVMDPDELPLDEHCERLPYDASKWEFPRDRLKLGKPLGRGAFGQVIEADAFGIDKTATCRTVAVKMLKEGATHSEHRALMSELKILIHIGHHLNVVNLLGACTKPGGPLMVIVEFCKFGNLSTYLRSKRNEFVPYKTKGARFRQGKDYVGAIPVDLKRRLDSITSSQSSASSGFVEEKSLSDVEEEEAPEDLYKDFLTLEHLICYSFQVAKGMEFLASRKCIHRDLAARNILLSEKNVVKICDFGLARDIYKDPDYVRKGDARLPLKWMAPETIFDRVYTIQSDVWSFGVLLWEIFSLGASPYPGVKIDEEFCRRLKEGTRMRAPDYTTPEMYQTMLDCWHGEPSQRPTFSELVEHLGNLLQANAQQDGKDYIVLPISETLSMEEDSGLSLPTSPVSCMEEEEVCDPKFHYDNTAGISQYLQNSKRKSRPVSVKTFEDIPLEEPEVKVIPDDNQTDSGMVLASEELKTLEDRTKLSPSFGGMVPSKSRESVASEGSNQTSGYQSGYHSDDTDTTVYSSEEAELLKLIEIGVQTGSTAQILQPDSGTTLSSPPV
Protocol: The target compounds were evaluated for their in vitro inhibitory activities against EGFR, VEGFR-2, and HDAC6. The EGFR and VEGFR-2 inhibitory assays were performed at Thermo Fischer Scientific, Madison, WI, USA (SelectScreenServices@thermofisher.com). The HDAC inhibitory assays were performed at BPS Bioscience, San Diego, CA, USA (www.bpsbioscience.com). Initially, all of the synthesised target compounds were evaluated for their percent inhibitory activity against EGFR, VEGFR-2, and HDACs at 10 µM single dose concentration, in which their mean percent inhibition is summarised in (Figure 5, Tables 1 and [2]). Representative compounds were evaluated for their percent inhibitory activity against EGFR and VEGFR-2 at 6 different concentrations (0.1 nM, 1 nM, 10 nM, 100 nM, 1 µM, 10 µM) to subsequently calculate their IC50 values (Table 3). Additionally, all of the synthesised target compounds were submitted to the National Cancer Institute “NCI” Bethesda, Maryland, USA (www.dtp.nci.nih.gov), to evaluate theirs in vitro antiproliferative activities against NCI 60- cancer cell line panel.
In vitro enzyme inhibition determination for the synthesised compounds was carried out in Thermo Fischer Scientific, Madison, WI, USA (SelectScreenServices@thermofisher.com). The EGFR and VEGFR-2 tyrosine kinase % inhibitory activity at a single-dose concentration of 10 µM was performed initially then representative compounds were evaluated at single-dose concentrations of (0.1 nM, 1 nM, 10 nM, 100 nM, 1 µM) using ZYLTE technology. A fluorescence-based, coupled-enzyme format is employed in the biochemical assay and depends on the sensitivity of proteolytic cleavage to non-phosphorylated and phosphorylated peptides. Then IC50 values for selected compounds were determined by GraphPad Prism at Misr international university.

SMILES | Mean % inhibition HDAC6 (HDAC6) | % Inhibition Hela Nuclear Extracts (Hela nuclear extracts) | inhibition at 10 µM (VEGFR-2; 10 µM single dose) | inhibition at 10 µM (HDAC6) | inhibition at 0.0001 µM (VEGFR-2; 0.1 nM compound, 10 μM ATP, read-out: % Inhibition mean, KDR (VEGFR2)) | inhibition at 0.001 µM (VEGFR-2; 1 nM compound, 10 μM ATP, read-out: % Inhibition mean, KDR (VEGFR2)) | inhibition at 0.01 µM (VEGFR-2; 10 nM compound, 10 μM ATP, read-out: % Inhibition mean, KDR (VEGFR2)) | inhibition at 0.1 µM (VEGFR-2; 100 nM compound, 10 μM ATP, read-out: % Inhibition mean, KDR (VEGFR2)) | inhibition at 1 µM (VEGFR-2; 1000 nM compound, 10 μM ATP, read-out: % Inhibition mean, KDR (VEGFR2)) | Mean % inhibition VEGFR-2 (VEGFR-2; 10 µM single dose) | IC50 (VEGFR-2; read-out: IC50 in enzyme assays VEGFR-2)
Cc1c(C(=O)NCCC(=O)NO)sc2ncnc(Nc3ccc(F)c(Cl)c3)c12 [Compound 19d, 4–(3-chloro-4-fluorophenylamino)-N-(3-(hydroxyamino)-3-oxopropyl)-5-methylthieno[2,3-d]pyrimidine-6-carboxamide] | 0% | 2% | 26% |  |  |  |  |  |  |  | 
Cc1c(C(=O)NO)sc2ncnc(Nc3ccccc3)c12 [Compound 15b, N-hydroxy-5-methyl-4-(phenylamino)thieno[2,3-d]pyrimidine-6-carboxamide] |  | 9% | 32% | 30% |  |  |  |  |  |  | 
Cc1c(C(=O)NCCCC(=O)NO)sc2ncnc(Nc3ccc(NC(=O)Nc4cccc(C(F)(F)F)c4)cc3)c12 [Compound 12c, 1–(4-(6-((4-(hydroxyamino)-4-oxobutyl)carbamoyl)-5-methylthieno[2,3-d]pyrimidin-4-ylamino)phenyl)-3–(3-(trifluoromethyl)phenyl)urea] |  | 7% | 103% | 23% | 5% | 10% | 5% | 36% | 90% | 100% | 185 nM
COc1cccc(NC(=O)Nc2ccc(Nc3ncnc4sc(C(=O)NCCC(=O)NO)c(C)c34)cc2)c1 [Compound 11b, 1–(4-(6-((3-(hydroxyamino)-3-oxopropyl)carbamoyl)-5-methylthieno[2,3-d]pyrimidin-4-ylamino)phenyl)-3–(3-methoxyphenyl)urea] | 13% | 4% | 75% |  |  |  |  |  |  |  | 
Cc1c(C(=O)NCCC(=O)NO)sc2ncnc(Nc3ccc(Cl)cc3)c12 [Compound 19c, 4–(4-chlorophenylamino)-N-(3-(hydroxyamino)-3-oxopropyl)-5-methylthieno[2,3-d]pyrimidine-6-carboxamide] | 9% | 7% | 21% | 7% |  |  |  |  |  |  | 
Cc1c(C(=O)NCCCC(=O)NO)sc2ncnc(Nc3ccccc3)c12 [Compound 20b, N-(4-(hydroxyamino)-4-oxobutyl)-5-methyl-4-(phenylamino)thieno[2,3-d]pyrimidine-6-carboxamide] |  | 21% | 25% | 56% |  |  |  |  |  |  | 
Cc1c(C(=O)NO)sc2ncnc(Nc3ccc(NC(=S)Nc4ccccc4)cc3)c12 [Compound 7d, 1–(4-(6-(hydroxycarbamoyl)-5-methylthieno[2,3-d]pyrimidin-4-ylamino)phenyl)-3-phenylthiourea] |  | 3% | 45% | 6% |  |  |  |  |  |  | 
Cc1c(C(=O)NO)sc2ncnc(Nc3ccc(NC(=O)Nc4ccccc4)cc3)c12 [Compound 7a, 1–(4-(6-(hydroxycarbamoyl)-5-methylthieno[2,3-d]pyrimidin-4-ylamino)phenyl)-3-phenylurea] | 5% | 2% | 89% | 7% |  |  |  |  |  |  | 
